Test results taken from paper PMC10257196 (Journal of Pharmaceutical Analysis, 2023).

Target: alkyladenine DNA glycosylase (AAG) (Homo sapiens, UniProt P29372)
Test: TRES coupled AAG/APE1 activity assay at […]
Assay type: biochemical
Settings: read-out: % inhibition at 10 μM

alkyladenine DNA glycosylase (AAG), sequence (P29372 18-298): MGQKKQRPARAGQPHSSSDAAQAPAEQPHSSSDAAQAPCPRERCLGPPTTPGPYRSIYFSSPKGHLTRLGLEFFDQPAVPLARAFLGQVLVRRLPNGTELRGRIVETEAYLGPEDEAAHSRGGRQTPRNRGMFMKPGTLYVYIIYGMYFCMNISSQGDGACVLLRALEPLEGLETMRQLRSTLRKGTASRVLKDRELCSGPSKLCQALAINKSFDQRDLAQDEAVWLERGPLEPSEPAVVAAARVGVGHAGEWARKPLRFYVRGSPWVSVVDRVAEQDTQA

inhibition at 10 µM: 77.5%
Compound: O=c1c(O)c(-c2ccc(O)cc2O)oc2cc(O)cc(O)c12 [morin]
